Assays:
Assay in all cases: Test D pre-/postemergence herbicide test
[1] = system: blackgrass; type: in vivo, Alopecurus myosuroides; conditions: for Plant response rating, Blackgrass: scale 0 to 100 (0 no effect, 100 complete control); for Plant response rating: Blackgrass, scale 0 to 100
From the text: (§1) Seeds of plant species selected from bluegrass (annual bluegrass, Poa annua), blackgrass (Alopecurus myosuroides), canarygrass (littleseed canarygrass, Phalaris minor), chickweed (common chickweed, Stellaria media), galium (catchweed bedstraw, Galium aparine), bromegrass, downy (downy bromegrass, Bromus tectorum), field poppy (Papaver rhoeas), field violet (Viola arvensis), foxtail, green (green foxtail, Setaria viridis), deadnettle (henbit deadnettle, Lamium amplexicaule), ryegrass, Italian (Italian ryegrass, Lolium multiflorum), kochia (Kochia scoparia), lambsquarters (Chenopodium album), oilseed rape (Brassica napus), pigweed (Amaranthus retroflexus), chamomile (scentless chamomile, Matricaria inodora), Russian thistle (Salsola kali), speedwell (bird's-eye speedwell, Veronica persica), barley, spring (spring barley, Hordeum vulgare), wheat, spring (spring wheat, Triticum aestivum), buckwheat, wild (wild buckwheat, Polygonum convolvulus), mustard, wild (wild mustard, Sinapis arvensis), oat, wild (wild oat, Avena fatua), radish, wild (wild radish, Raphanus raphanistrum), […]), barley, winter (winter barley, Hordeum vulgare), and wheat, winter (winter wheat, Triticum aestivum) were planted into a silt loam soil and treated preemergence with test chemicals formulated in a non-phytotoxic solvent mixture which included a surfactant. At the same time, these species were planted in pots containing Redi-Earth® planting medium (Scotts Company, 14111 Scottslawn Road, Marysville, Ohio 43041) comprising spaghnum peat moss, vermiculite, wetting agent and starter nutrients and treated with postemergence applications of the test chemicals formulated in the same manner. Plants ranged in height from 2 to 18 cm (1- to 4-leaf stage). Treated plants and controls were maintained in a controlled growth environment for 7 to 21 days after which time all species were compared to controls and visually evaluated. Plant response ratings, summarized in Table D, are based on a scale of 0 to 100 where 0 is no effect and 100 is complete control. A dash (-) response means no test result.

[2] = system: barley, winter; type: in vivo, Hordeum vulgare; conditions: for Plant response rating, Barley, Winter: scale 0 to 100 (0 no effect, 100 complete control); for Plant response rating: Barley, Winter, scale 0 to 100
From the text: as §1

[3] = system: barley, spring; type: in vivo, Hordeum vulgare; conditions: for Plant response rating, Barley, Spring: scale 0 to 100 (0 no effect, 100 complete control); for Plant response rating: Barley, Spring, scale 0 to 100
From the text: as §1

[4] = system: pigweed; type: in vivo, Amaranthus retroflexus; conditions: for Plant response rating, Pigweed: Preemergence, scale 0 to 100 (0 no effect, 100 complete control); for Plant response rating: Postemergence, Pigweed, scale 0 to 100
From the text: as §1

[5] = system: bluegrass; type: in vivo, Poa annua; conditions: for Plant response rating, Bluegrass: scale 0 to 100 (0 no effect, 100 complete control); for Plant response rating: Bluegrass, scale 0 to 100
From the text: as §1

[6] = system: wheat, winter; type: in vivo, Triticum aestivum; conditions: for Plant response rating, Wheat, Winter: Preemergence, scale 0 to 100 (0 no effect, 100 complete control); for Plant response rating: Postemergence, Wheat, Winter, scale 0 to 100
From the text: as §1

[7] = system: wheat, spring; type: in vivo, Triticum aestivum; conditions: for Plant response rating, Wheat, Spring: Preemergence, scale 0 to 100 (0 no effect, 100 complete control); for Plant response rating: Postemergence, Wheat, Spring, scale 0 to 100
From the text: as §1

O=C1NCC(c2ccc(F)c(C(F)(F)F)c2)C1C(=O)Nc1cccc(F)c1F (racemic) [Compound 77]
45: Plant response rating ([2]; Preemergence, 125 g ai/ha) | Plant response rating ([5]; Preemergence, 125 g ai/ha)
70: Plant response rating, Pigweed ([4]; 62 g ai/ha)
25: Plant response rating, Blackgrass ([1]; Preemergence, 62 g ai/ha) | Plant response rating ([3]; Preemergence, 125 g ai/ha) | Plant response rating ([3]; Preemergence, 250 g ai/ha) | Plant response rating, Pigweed ([4]; 31 g ai/ha) | Plant response rating, Wheat, Winter ([6]; 125 g ai/ha) | Plant response rating, Wheat, Spring ([7]; 250 g ai/ha)
0: Plant response rating, Barley, Winter ([2]; Preemergence, 62 g ai/ha) | Plant response rating, Barley, Winter ([2]; Preemergence, 31 g ai/ha) | Plant response rating, Bluegrass ([5]; Preemergence, 31 g ai/ha) | Plant response rating, Wheat, Winter ([6]; 62 g ai/ha) | Plant response rating, Wheat, Winter ([6]; 31 g ai/ha)
10: Plant response rating, Blackgrass ([1]; Preemergence, 31 g ai/ha) | Plant response rating, Wheat, Spring ([7]; 62 g ai/ha) | Plant response rating, Wheat, Spring ([7]; 31 g ai/ha)
65: Plant response rating ([1]; Preemergence, 250 g ai/ha)
40: Plant response rating ([1]; Preemergence, 125 g ai/ha)
5: Plant response rating, Barley, Spring ([3]; Preemergence, 62 g ai/ha) | Plant response rating, Barley, Spring ([3]; Preemergence, 31 g ai/ha) | Plant response rating, Bluegrass ([5]; Preemergence, 62 g ai/ha)
55: Plant response rating ([2]; Preemergence, 250 g ai/ha) | Plant response rating ([5]; Preemergence, 250 g ai/ha) | Plant response rating, Wheat, Winter ([6]; 250 g ai/ha)
20: Plant response rating, Wheat, Spring ([7]; 125 g ai/ha)
80: Plant response rating, Pigweed ([4]; 125 g ai/ha) | Plant response rating, Pigweed ([4]; 250 g ai/ha)

O=C1NCC(c2cc(F)c(F)cc2F)C1C(=O)Nc1cccc(F)c1F (stereo not drawn) [Compound 50]
0: Plant response rating ([1]; Postemergence, 16 g ai/ha) | Plant response rating ([1]; Postemergence, 31 g ai/ha) | Plant response rating ([1]; Postemergence, 62 g ai/ha) | Plant response rating ([1]; Postemergence, 125 g ai/ha) | Plant response rating, Blackgrass ([1]; Preemergence, 62 g ai/ha) | Plant response rating, Blackgrass ([1]; Preemergence, 16 g ai/ha) | Plant response rating, Blackgrass ([1]; Preemergence, 31 g ai/ha) | Plant response rating ([1]; Preemergence, 125 g ai/ha) | Plant response rating ([2]; Postemergence, 16 g ai/ha) | Plant response rating ([2]; Postemergence, 31 g ai/ha) | Plant response rating ([2]; Postemergence, 62 g ai/ha) | Plant response rating ([2]; Postemergence, 125 g ai/ha) | Plant response rating, Barley, Winter ([2]; Preemergence, 62 g ai/ha) | Plant response rating, Barley, Winter ([2]; Preemergence, 16 g ai/ha) | Plant response rating, Barley, Winter ([2]; Preemergence, 31 g ai/ha) | Plant response rating ([2]; Preemergence, 125 g ai/ha) | Plant response rating ([3]; Postemergence, 16 g ai/ha) | Plant response rating ([3]; Postemergence, 31 g ai/ha) | Plant response rating ([3]; Postemergence, 62 g ai/ha) | Plant response rating ([3]; Postemergence, 125 g ai/ha) | Plant response rating, Barley, Spring ([3]; Preemergence, 62 g ai/ha) | Plant response rating, Barley, Spring ([3]; Preemergence, 16 g ai/ha) | Plant response rating, Barley, Spring ([3]; Preemergence, 31 g ai/ha) | Plant response rating ([3]; Preemergence, 125 g ai/ha) | Plant response rating ([4]; 31 g ai/ha) | Plant response rating ([4]; 62 g ai/ha) | Plant response rating ([5]; Postemergence, 16 g ai/ha) | Plant response rating ([5]; Postemergence, 31 g ai/ha) | Plant response rating ([5]; Postemergence, 62 g ai/ha) | Plant response rating ([5]; Postemergence, 125 g ai/ha) | Plant response rating, Bluegrass ([5]; Preemergence, 62 g ai/ha) | Plant response rating, Bluegrass ([5]; Preemergence, 16 g ai/ha) | Plant response rating, Bluegrass ([5]; Preemergence, 31 g ai/ha) | Plant response rating ([5]; Preemergence, 125 g ai/ha) | Plant response rating ([6]; 16 g ai/ha) | Plant response rating ([6]; 31 g ai/ha) | Plant response rating ([6]; 62 g ai/ha) | Plant response rating ([6]; 125 g ai/ha) | Plant response rating, Wheat, Winter ([6]; 62 g ai/ha) | Plant response rating, Wheat, Winter ([6]; 125 g ai/ha) | Plant response rating, Wheat, Winter ([6]; 16 g ai/ha) | Plant response rating, Wheat, Winter ([6]; 31 g ai/ha) | Plant response rating ([7]; 16 g ai/ha) | Plant response rating ([7]; 31 g ai/ha) | Plant response rating ([7]; 62 g ai/ha) | Plant response rating ([7]; 125 g ai/ha) | Plant response rating, Wheat, Spring ([7]; 62 g ai/ha) | Plant response rating, Wheat, Spring ([7]; 125 g ai/ha) | Plant response rating, Wheat, Spring ([7]; 16 g ai/ha) | Plant response rating, Wheat, Spring ([7]; 31 g ai/ha)
5: Plant response rating ([4]; 16 g ai/ha) | Plant response rating, Pigweed ([4]; 125 g ai/ha)
10: Plant response rating ([4]; 125 g ai/ha) | Plant response rating, Pigweed ([4]; 16 g ai/ha) | Plant response rating, Pigweed ([4]; 31 g ai/ha)
25: Plant response rating, Pigweed ([4]; 62 g ai/ha)

— patent US10294202B2, “Pyrrolidinones as herbicides” (FMC Corporation, priority 2013, dated 2019)
